The values that follow are results of earlier work, collected in patent US20070135395A1, “Novel method for the preparation of intermediates useful for the synthesis fo vitamin d analogues” (Leo Pharma A/S, priority 2004, published 2007).

In the series the test system is epidermal keratinocytes. Particulars: cited: Castelijins et al., Acta Derm. Venereol. 79, 11, 1999.

In the case of `C=C1/C(=C\C=C2/CCC[C@]3(C)[C@@H]([C@H](C)/C=C/[C@@H](O)C4CC4)CC[C@@H]23)C[C@@H](O)C[C@@H]1O` [Calcipotriol, (5Z, 7E, 22E, 24S)-24-cyclopropyl-9,10-secochola-5,7,10(19),22-tetraene-1α-3β-24-triol], the “activity in inhibiting undesirable proliferation of epidermal keratinocytes” value is recorded as “strong activity”.
